# Reference: ChEMBL document CHEMBL2203176, “Structure-based bioisosterism design, synthesis and biological evaluation of novel 1,2,4-triazin-6-ylthioacetamides as potent HIV-1 NNRTIs” (Bioorg Med Chem Lett, 2012)
# Experiments:
# [1] = tested on: Human immunodeficiency virus 2; assay: Antiviral activity against HIV2 ROD infected in human MT4 cells assessed as inhibition of virus-induced cytopathicity by MTT assay; assay type: functional, organism-based; conditions: Human immunodeficiency virus 2, ISOLATE ROD
# [2] = tested on: Human immunodeficiency virus 1; assay: Antiviral activity against HIV1 3B infected in human MT4 cells assessed as inhibition of virus-induced cytopathicity by MTT assay; assay type: functional, organism-based; conditions: Human immunodeficiency virus 1, 3B
# [3] = Selectivity index, ratio of CC50 for human MT4 cells to EC50 for HIV1 3B; assay type: toxicity, cell-based; conditions: read-out: Ratio CC50/EC50
# [4] = tested on: Human immunodeficiency virus 1; assay: Ratio of dideoxycytidine EC50 to compound EC50 for HIV1 3B; assay type: functional
# [5] = tested on: Human immunodeficiency virus 1; assay: Ratio of nevirapine EC50 to compound EC50 for HIV1 3B; assay type: functional
# [6] = Cytotoxicity against human MT4 cells by MTT assay; assay type: cell-based
# [7] = Selectivity index, ratio of CC50 for human MT4 cells to EC50 for HIV2 ROD; assay type: toxicity, cell-based; conditions: read-out: Ratio CC50/EC50
# [8] = Selectivity index, ratio of CC50 for human MT4 cells to EC50 for HIV1 RES056 harboring reverse transcriptase K103N/Y181C mutant; assay type: toxicity, cell-based; conditions: read-out: Ratio CC50/EC50
# [9] = tested on: Human immunodeficiency virus 1; assay: Ratio of delavirdine EC50 to compound EC50 for HIV1 3B; assay type: functional
# [10] = tested on: Human immunodeficiency virus 1; assay: Antiviral activity against HIV1 RES056 harboring reverse transcriptase K103N/Y181C mutant infected in human MT4 cells assessed as inhibition of virus-induced cytopathicity by MTT assay; assay type: functional, organism-based; conditions: Human immunodeficiency virus 1, RES056, MT4
# [11] = target: Human immunodeficiency virus type 1 reverse transcriptase (Human immunodeficiency virus 1, UniProt Q72547); assay: Inhibition of HIV1 reverse transcriptase assessed as biotin-dUTP incorporation into enzyme using […] as template primer by colorimetric analysis
Structure (SMILES),EC50 [1] [µM],EC50 [2] [µM],selectivity ratio [3],Ratio EC50 [4],Ratio EC50 [5],CC50 [6] [µM],selectivity ratio [7],selectivity ratio [8],Ratio EC50 [9],EC50 [10] [µM],IC50 [11] [µM]
NS(=O)(=O)c1ccc(NC(=O)CSc2nncnc2-c2cccc3ccccc23)c(Br)c1,> 23,0.018,1290,78,11,23,< 1,7,2,3.3,
Cc1ccc(NC(=O)CSc2nncnc2-c2ccccc2Cl)c([N+](=O)[O-])c1,> 158,0.048,3330,,,158,< 1,≤ 1,,≥ 22,18
O=C(CSc1nncnc1-c1ccccc1Cl)Nc1ccccc1[N+](=O)[O-],> 63,0.023,2160,,,63,< 1,≤ 6,,≥ 11,6.5
